Like-named read-outs stand apart in the source and are kept apart here.
Legend:
rVMAT2 = target: T1, rVMAT2 (Rattus norvegicus, UniProt Q01827); assay: rVMAT2 screening assay: inhibition of uptake of the fluorescent substrate FFN206 in stably transfected rVMAT2-HEK cells; type: cell-based; conditions: for Ki: read-out: VMAT2 Ki
T1 construct: expressed in transfected cells; host or cells: HEK cells, stably transfected (rVMAT2-HEK)
Protocol: (§1) Stably transfected hSERT-HEK and rVMAT2-HEK cellular cultures were maintained in Dulbecco’s Minimal Essential Medium (DMEM) with GlutaMAX (Gibco) with the following additions: 10% (v/v) Fetal Bovine Serum (FBS, Atlanta Biologicals), 100 U/mL Penicillin, and 10 µg/mL Streptomycin (Gibco). With regards to the former cell lineage, an additional ingredient, 500 µg/mLGeneticin (G418) (Sigma) was included to preserve the respective transgene.
(§2) For both hSERT and rVMAT2 screening experiments, respective singly transfected cells were seeded at a density of 0.09 × 10^6 cells/well in poly-D-Lysine (Sigma) coated white solid-bottom 96-well plates. Growth was permitted for approximately 44 hours in said aqueous media and at an incubation environment of 37° C. and 5% Carbon Dioxide. At the beginning of the experiment, the cellular growth solution was aspirated, and individual cells were rinsed with 150 µL of 1× Dulbecco’s Phosphate Buffered Saline (PBS; HyClone). 63 µL of Experimental Media (consisting of the following contents: DMEM without phenol red but with 4.5 g/L of D-Glucose (Gibco), 1 % (v/v) FBS (Atlanta Biologicals), 100 U/mL Penicillin, and 10 µg/mLStreptomycin (Gibco)) with 2 × tiered concentrations of inhibitor (or DMSO, the vehicle of these experiments) were added to the respective wells. […] After a required incubation period of 30 minutes for proper fluorescent probe uptake, the contents of each well were aspirated and consequently, rinsed twice with 120 µL of PBS. A final solution of 120 µL of PBS is finally added to all corresponding wells for cell maintenance before undergoing fluorescence uptake reading by a BioTek H1MF plate reader.
(§3) Numerical analysis of the collected experimental data preceded as accordingly. Respective inhibitor values were first subtracted from vehicular values to quantify the respective fluorescence uptake. This metric was then analyzed using the dose-response-inhibitor nonlinear curve fitting model ([inhibitor] vs response (three parameters)) as supplied by GraphPad Prism 6 software. For each inhibitor, the model supplied a respective IC50 ± SEM value (Table 1).

hSERT = target: T2, hSERT (Homo sapiens, UniProt P31645); assay: hSERT screening assay: inhibition of uptake of the fluorescent substrate APP+ in stably transfected hSERT-HEK cells; type: cell-based; conditions: for IC50: hSERT-HEK cells, APP+ 1.1 µM, mean ± SEM, n ≥ 4, read-out: SERT IC50
T2 construct: expressed in transfected cells; host or cells: HEK cells, stably transfected (hSERT-HEK), kept under G418
Protocol: as §1, §2, §3

[1] = Metabolic stability and noribogaine formation in rat liver microsomes (RLM), LC-MS/MS; conditions: for percent remaining of parent compound: 10 µM, + NADPH; for CLh,int: 45 mg microsomal protein per gm liver; for % Remaining at 60 min (- NADPH): without NADPH; for %Remaining at 60 min (Buffer): buffer control, RLM column; for half-life at 10 µM: male, rat, microsomes, pH 7.4
Protocol: (§4) Metabolism Studies. Metabolic stability of test compounds was evaluated in liver microsomes from rat (RLM) and human (HLM). This was accomplished by incubating test compounds with microsomes and monitoring disappearance of parent compound as well as metabolite formation over time using LC-MS/MS in Multiple Reaction Monitoring mode (MRM).
(§5) Stock solutions of test compounds were prepared in DMSO at a concentration of 10 mM.
(§6) From the above mix, 70 µL was added to individual wells of 96 well reaction plates and preincubated at 37° C. for 5 min. […] Reactions without NADPH and buffer controls (minus NADPH) at 0 min and 60 min were also incubated to rule out non-NADPH metabolism or chemical instability in the incubation buffer. All reactions were terminated using 100 µL of ice-cold acetonitrile containing internal standard (glipizide) at 0, 5, 15, 30 and 60 min.
(§7) Samples were monitored for parent compounds disappearance and formation of metabolite in MRM mode using LC-MS/MS instrument (API-4000 with Waters UPLC).
(§8) The percent remaining of test compounds and positive control in each sample was determined by considering peak area ratio in the 0 minute sample as 100%. The Half-life of compounds in microsomes is calculated by formula: […]
(§9) In vitro intrinsic clearance (CL´int) (units in mL/min/kg) was calculated using the formula: […]
(§10) * Indicates liver weight (gm) which varies species wise. For human, monkey, dog, rat and mouse the liver weight are 20 gm, 32 gm, 32 gm, 40 gm and 90 gm respectively.

[2] = Metabolic stability and noribogaine formation in human liver microsomes (HLM), LC-MS/MS; conditions: for percent remaining of parent compound / CLh,int / % Remaining at 60 min (+ NADPH) / % Remaining at 60 min (- NADPH): HLM; for percent remaining of parent compound: 10 µM, + NADPH; for CLh,int: 45 mg microsomal protein per gm liver; for % Remaining at 60 min (+ NADPH): summary line; for % Remaining at 60 min (- NADPH): without NADPH; for %Remaining at 60 min (Buffer): buffer control, HLM column; for half-life at 10 µM: human, microsomes, pH 7.4
Protocol: as §4, §5, §6, §7, §8, §9, §10

[3] = rVMAT2-HEK cells, FFN206 0.75 µM, mean ± SEM, n ≥ 4, read-out: VMAT2 IC50
[4] = ratio of potency to noribogaine

T2 sequence (P31645 whole entry): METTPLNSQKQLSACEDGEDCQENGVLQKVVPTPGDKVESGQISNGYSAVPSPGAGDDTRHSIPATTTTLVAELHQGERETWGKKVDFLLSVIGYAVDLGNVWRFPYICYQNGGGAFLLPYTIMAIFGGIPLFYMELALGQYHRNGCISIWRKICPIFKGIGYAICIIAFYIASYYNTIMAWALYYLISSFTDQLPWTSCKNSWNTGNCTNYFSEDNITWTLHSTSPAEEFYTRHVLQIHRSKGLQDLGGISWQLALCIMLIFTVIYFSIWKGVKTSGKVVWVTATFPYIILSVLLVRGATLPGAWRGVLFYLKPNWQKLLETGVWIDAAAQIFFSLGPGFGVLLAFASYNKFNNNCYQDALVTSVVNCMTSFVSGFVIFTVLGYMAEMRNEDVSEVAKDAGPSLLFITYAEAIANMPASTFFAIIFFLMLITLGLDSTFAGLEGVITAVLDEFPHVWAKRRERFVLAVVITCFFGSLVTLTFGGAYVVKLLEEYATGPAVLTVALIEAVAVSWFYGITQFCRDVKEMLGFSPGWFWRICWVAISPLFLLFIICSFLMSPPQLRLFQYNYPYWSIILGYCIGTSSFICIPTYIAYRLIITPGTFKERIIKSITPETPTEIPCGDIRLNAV
T1 sequence (Q01827 whole entry): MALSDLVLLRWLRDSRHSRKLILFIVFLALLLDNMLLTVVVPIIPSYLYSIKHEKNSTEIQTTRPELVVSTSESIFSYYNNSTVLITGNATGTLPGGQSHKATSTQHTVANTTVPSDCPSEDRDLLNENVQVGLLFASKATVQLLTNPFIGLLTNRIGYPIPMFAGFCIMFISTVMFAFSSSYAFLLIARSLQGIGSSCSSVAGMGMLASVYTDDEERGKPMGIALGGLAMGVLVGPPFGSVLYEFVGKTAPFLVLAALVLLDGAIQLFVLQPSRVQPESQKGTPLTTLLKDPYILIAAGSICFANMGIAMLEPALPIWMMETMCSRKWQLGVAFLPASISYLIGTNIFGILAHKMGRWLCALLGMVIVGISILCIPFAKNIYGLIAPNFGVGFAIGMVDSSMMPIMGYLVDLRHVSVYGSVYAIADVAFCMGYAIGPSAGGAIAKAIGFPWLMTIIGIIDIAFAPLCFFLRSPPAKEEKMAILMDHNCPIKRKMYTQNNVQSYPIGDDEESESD

## CCC1CC2CC3c4[nH]c5cc(Br)c(OC)cc5c4CCN(C2)C13 (stereo not drawn) [Compound 18, 11-Bromo-ibogaine]
rVMAT2; [3]
  IC50: 1000 ± 150 nM
hSERT
  IC50: 200 ± 30 nM

## CCC1CC2CC3c4[nH]c5ccc(OC)cc5c4CCN(C2)C13 (stereo not drawn) [Ibogaine]
rVMAT2
  IC50: ~4000 nM
[1]; RLM, 0 min
  percent remaining of parent compound: 100%
[1]; RLM
  CLh,int: 306 mL/min/kg
  % Remaining at 60 min (- NADPH): 104%
[1]; RLM, 5 min
  percent remaining of parent compound: 86%
[1]; RLM, 15 min
  percent remaining of parent compound: 56%
[1]; RLM, 30 min
  percent remaining of parent compound: 23%
[1]; RLM, 60 min
  percent remaining of parent compound: 1%
[1]
  %Remaining at 60 min (Buffer): 103%
  half-life at 10 µM: 8 min
[2]; 0 min
  percent remaining of parent compound: 100%
[2]
  CLh,int: 7 mL/min/kg
  % Remaining at 60 min (+ NADPH): 81%
  % Remaining at 60 min (- NADPH): 98%
  %Remaining at 60 min (Buffer): 103%
  half-life at 10 µM: > 60 min
[2]; 5 min
  percent remaining of parent compound: 104%
[2]; 15 min
  percent remaining of parent compound: 98%
[2]; 30 min
  percent remaining of parent compound: 94%
[2]; 60 min
  percent remaining of parent compound: 81%

## CCC1CC2CC3c4c(c5ccccc5n4C)CCN(C2)C13 (stereo not drawn) [Compound 6, N-methyl-ibogamine]
rVMAT2; [3]
  IC50: 1500 ± 160 nM
hSERT
  IC50: 80 ± 9 nM

## CCC1CC2CC3c4c(c5cc(O)ccc5n4CC)CCN(C2)C13 (stereo not drawn) [Compound 13, N-ethyl-noribogaine]
rVMAT2; [3]
  IC50: 70 ± 10 nM
hSERT
  IC50: 1900 ± 200 nM

## CCOc1ccc2[nH]c3c(c2c1)CCN1CC2CC(CC)C1C3C2 (stereo not drawn) [10-Ethoxy-ibogamine]
rVMAT2
  VMAT2 inhibition, result in words: potent VMAT2 inhibitor
  Ki: 50 ± 10 nM
rVMAT2; listed as 10-Ethoxy-ibogaine
  VMAT2 inhibition, result in words: nearly an order of magnitude more potent
rVMAT2; [3]
  IC50: 80 ± 20 nM
hSERT
  SERT inhibition, result in words: only a weak inhibitor of SERT
  IC50: 9000 ± 1100 nM
[1]; RLM, 0 min
  percent remaining of parent compound: 100%
[1]; RLM
  CLh,int: 445 mL/min/kg
  % Remaining at 60 min (- NADPH): 88%
[1]; RLM, 5 min
  percent remaining of parent compound: 77%
[1]; RLM, 15 min
  percent remaining of parent compound: 42%
[1]; RLM, 30 min
  percent remaining of parent compound: 3%
[1]; RLM, 60 min
  percent remaining of parent compound: 0%
[1]; RLM, summary line
  % Remaining at 60 min (+ NADPH): 0%
[1]
  %Remaining at 60 min (Buffer): 88%
  half-life at 10 µM: 6 min
[2]; 0 min
  percent remaining of parent compound: 100%
[2]
  CLh,int: 13 mL/min/kg
  % Remaining at 60 min (+ NADPH): 66%
  % Remaining at 60 min (- NADPH): 106%
  %Remaining at 60 min (Buffer): 88%
  half-life at 10 µM: > 60 min
[2]; 5 min
  percent remaining of parent compound: 103%
[2]; 15 min
  percent remaining of parent compound: 98%
[2]; 30 min
  percent remaining of parent compound: 85%
[2]; 60 min
  percent remaining of parent compound: 66%

## CCC1CC2CC3c4[nH]c5ccc(OC)c(Br)c5c4CCN(C2)C13 (stereo not drawn) [Compound 17, 9-Bromo-ibogaine]
rVMAT2; [3]
  IC50: 4900 ± 870 nM
rVMAT2; [4]
  times weaker than noribogaine at VMAT2: ~8.6
rVMAT2
  Ki: 3000 ± 530 nM
hSERT; Cheng-Prusoff from IC50, Km (APP+) = 1.6 µM, read-out: SERT Ki
  Ki: 400 ± 90 nM
hSERT
  IC50: 670 ± 160 nM
hSERT; [4]
  times less potent than noribogaine at SERT: approximately 2.4

## CCC1CC2CC3c4c(c5cc(C#N)ccc5n4C)CCN(C2)C13 (stereo not drawn) [Compound 10, N-methyl-ibogamine-10-carbonitrile]
rVMAT2; [3]
  IC50: 440 ± 50 nM
hSERT
  IC50: 5.1 ± 0.83 nM

## CCCOc1ccc2[nH]c3c(c2c1)CCN1CC2CC(CC)C1C3C2 (stereo not drawn) [Compound 4, 10-Propoxy-ibogamine]
hSERT
  IC50: 3000 ± 500 nM

## CCc1ccc2c(c1)c1c(n2C)C2CC3CC(CC)C2N(CC1)C3 (stereo not drawn) [Compound 11, N-methyl-10-ethyl-ibogamine]
rVMAT2; [3]
  IC50: 750 ± 70 nM
hSERT
  IC50: 910 ± 120 nM

Reference: patent US20230348465A1, “IBOGAINE ANALOGS AS THERAPEUTICS FOR NEUROLOGICAL AND PSYCHIATRIC DISORDERS” (The Trustees of Columbia University in the City of New York, priority 2020, published 2023)
